Source: ChEMBL document CHEMBL1275321, “Synthesis and antitumor activity of novel 6-aryl and 6-alkylpyrazolo[3,4-d]pyrimidin-4-one derivatives” (Eur J Med Chem, 2010)
Values after ≈ are worked out from the molar mass of the structure shown.

Test system: HCT-116
Assay: Cytotoxicity against human HCT116 cells after 48 hrs by sulforhodamine B assay
Type: functional, cell-based
Conditions: HCT-116, 48 h

| Structure (SMILES) | IC50 [µg/mL] |
| --- | --- |
| CSc1nn(-c2ccccc2)c2nc(CNc3ccc(S(N)(=O)=O)cc3)[nH]c(=O)c12 | 3.09 (≈ 6.98 µM) |
| CSc1nn(-c2ccccc2)c2nc(CCNc3ccc(S(N)(=O)=O)cc3)[nH]c(=O)c12 | 2.82 (≈ 6.18 µM) |
| CSc1nn(-c2ccccc2)c2c1C(=O)NC(c1ccccc1)N2 (configuration not stated) | 2.4 (≈ 7.13 µM) |
| CSc1nn(-c2ccccc2)c2nc(CCNC3CCCCC3)[nH]c(=O)c12 | 0.47 (≈ 1.23 µM) |
| CSc1nn(-c2ccccc2)c2nc(-c3cccc([N+](=O)[O-])c3)[nH]c(=O)c12 | 0.67 (≈ 1.77 µM) |
| COc1ccc(NCc2nc3c(c(SC)nn3-c3ccccc3)c(=O)[nH]2)cc1 | 2.7 (≈ 6.86 µM) |
| CSc1nn(-c2ccccc2)c2nc(CCNc3ccccc3)[nH]c(=O)c12 | 1.34 (≈ 3.55 µM) |
